Results from ChEMBL document CHEMBL1125524, “Adenosine A1 antagonists. 2. Structure-activity relationships on diuretic activities and protective effects against acute renal failure” (J Med Chem, 1992).

Tests used:
[1] = system: Rattus norvegicus; assay: Ratio of sodium ion/potassium ion concentration in treated rats to that in control rats, at a peroral dose of 0.1 mg/Kg; type: functional
[2] = system: Rattus norvegicus; assay: Oral diuretic activity was measured after oral administration of 0.01 mg/kg to rats(control volume is 1.15+/-0.17); type: functional, Urine
[3] = system: Rattus norvegicus; assay: Ratio of urinary excretion value (urinary volume) in treated rats to that in control rats, at a peroral dose of 0.01 mg/Kg; type: functional, Urine
[4] = system: Rattus norvegicus; assay: Ratio of urinary excretion value (Na+ concentration) in treated rats to that in control rats, at a peroral dose of 1.6 mg/Kg; type: functional, Urine
[5] = system: Rattus norvegicus; assay: Effect on urinary excretion potassium and sodium after oral administration of 0.01 mg/kg to rats(potassium and sodium excretion in control rat is 0.191+/-0.020); type: functional, Urine
[6] = system: Rattus norvegicus; assay: Serum creatinine concentration measured after intraperitoneal administration of 1 mg/kg of compound to rats(vehicle 6.90+/-0.2); type: functional
[7] = system: Rattus norvegicus; assay: Urea nitrogen concentration measured after intraperitoneal administration of 1 mg/kg of compound to rats(vehicle 143.9+/-12.2); type: functional
[8] = system: Rattus norvegicus; assay: Serum creatinine concentration measured after intraperitoneal administration of 1 mg/kg of compound to rats(vehicle 5.08+/-0.14); type: functional
[9] = system: Rattus norvegicus; assay: Effect on urinary excretion potassium and sodium after oral administration of 0.1 mg/kg to rats(potassium and sodium excretion in control rat is 0.179+/-0.038); type: functional, Urine
[10] = system: Rattus norvegicus; assay: Oral diuretic activity was measured after oral administration of 0.1 mg/kg to rats(control volume is 0.75+/-0.12); type: functional, Urine
[11] = system: Rattus norvegicus; assay: Ratio of urinary excretion value (Na+ concentration) in treated rats to that in control rats, at a peroral dose of 0.01 mg/Kg; type: functional, Urine
[12] = system: Rattus norvegicus; assay: Urea nitrogen concentration measured after intraperitoneal administration of 1 mg/kg of compound to rats(vehicle 171.3+/-6.4); type: functional
[13] = biological target: Adenosine A2 receptor (Rattus norvegicus, UniProt P29276+P30543)
[14] = system: Rattus norvegicus; assay: Urea nitrogen concentration measured after intraperitoneal administration of 1 mg/kg of compound to rats(vehicle 165.3+/-4); type: functional
[15] = system: Rattus norvegicus; assay: Ratio of sodium ion/potassium ion concentration in treated rats to that in control rats, at a peroral dose of 0.01 mg/Kg; type: functional
[16] = system: Rattus norvegicus; assay: Ratio of urinary excretion value (urinary volume) in treated rats to that in control rats, at a peroral dose of 1.6 mg/Kg; type: functional, Urine
[17] = system: Rattus norvegicus; assay: Effect on urinary excretion potassium and sodium after oral administration of 1.6 mg/kg to rats(potassium and sodium excretion in control rat is 0.173+/-0.015); type: functional, Urine
[18] = system: Rattus norvegicus; assay: Ratio of sodium ion/potassium ion concentration in treated rats to that in control rats, at a peroral dose of 1.6 mg/Kg; type: functional
[19] = system: Rattus norvegicus; assay: Serum creatinine concentration measured after intraperitoneal administration of 1 mg/kg of compound to rats(vehicle 4.09+/-0.39); type: functional
[20] = system: Rattus norvegicus; assay: Ratio of urinary excretion value (urinary volume) in treated rats to that in control rats, at a peroral dose of 0.1 mg/Kg; type: functional, Urine
[21] = system: Rattus norvegicus; assay: Oral diuretic activity was measured after oral administration of 1.6 mg/kg to rats(control volume is 0.93+/-0.03); type: functional, Urine
[22] = system: Rattus norvegicus; assay: Ratio of urinary excretion value (Na+ concentration) in treated rats to that in control rats, at a peroral dose of 0.1 mg/Kg; type: functional, Urine

For CC(C)Cn1c(=O)n(C)c(=O)c2[nH]c(C(C3CC3)C3CC3)nc21, the “Na+/K+” value [1] was 2.13, the Urine volume [2] was 1.15 ml 6hr-1 100g-1 and the T/C [3] was 1. For the same compound, the T/C [4] was 1.99, the Na [5] was 0.212 m equiv 6hr-1 100g-1 and the Cr [6] was 3.97 mg/dL. It also gave a UN [7] of 150.7 mg/dL, a Cr [8] of 3.29 mg/dL and a Na [9] of 0.25 m equiv 6hr-1 100g-1. For the same compound, the Urine volume [10] was 1.26 ml 6hr-1 100g-1, the T/C [11] was 1.11 and the UN [12] was 110.7 mg/dL. For the same compound, the Ki [13] was 410 nM, the UN [14] was 122 mg/dL and the “Na+/K+” value [15] was 1.09. For the same compound, the T/C [16] was 2.08, the Na [17] was 0.345 m equiv 6hr-1 100g-1 and the “Na+/K+” value [18] was 1.37. The Cr [19] was 4.28 mg/dL, the T/C [20] was 1.68 and the Urine volume [21] was 1.93 ml 6hr-1 100g-1. For the same compound, the T/C [22] was 1.4.
